Columns and labels:
[1] = test system: ovarian cancer cells SK-OV-3; assay: CCK8 cell viability / cell killing curve; type: cell-based; conditions: Homo sapiens, SK-OV-3, drug alone, 72 hours
Experimental: A 96-well cell plate was plated with 5000 SK-OV-3 cells/well. After 24 hours, a drug with a maximum concentration of 20 μM was added and diluted with a 3-fold gradient dilution to set a total of 9 concentrations, with the lowest concentration being […]. After the drug and cells were co-incubated for 72 hours, 10 μL of CCK8 solution was added to each well, and the plate was incubated in a 37° C. and 5% carbon dioxide incubator for 2 hours. Then, a microplate reader was used for reading with a set absorbance wavelength of 450 nm. The values read were compared with the DMSO control group and plotted using Graphpad 8.0.
A 96-well cell plate was plated with 5000 SK-OV-3 cells/well. […] Adriamycin at these dosages was combined with 3 μM IN10018. After 72 hours of co-culture with the cells, cell viability was detected using CCK8 method. Graphpad 8.0 was used for plotting.
A 96-well cell plate was plated with 5000 SK-OV-3 cells/well. […] Adriamycin at these dosages was combined with 3 μM Defactinib. After 72 hours of co-culture with the cells, cell viability was detected using CCK8 method. Graphpad 8.0 was used for plotting.

CT26 cells = assay: Microscope observation and flow cytometry of CRT and Annexin-V positive cells; type: cell-based, mouse; conditions: IN10018 5 μM, Adriamycin 1 μM, alone or combined, 48 hours
Experimental: Then the cells were collected for flow analysis.
The culture conditions were 37° C. and 5% CO2.

IFN-γ = assay: ELISA of IFN-γ in serum of CT26 tumor-bearing mice; type: in vivo, BALB/c mice; conditions: IN10018 25 mg/kg PO QD × 8, Doxil 3 mg/kg i.v. QW × 2; blood 24 hours after the second administration of Doxil; n=5
Experimental: (§1) BALB/c mice (from Shanghai Lingchang Biotechnology Co., Ltd.) were used to construct the CT26 tumor cell model. When the tumor volume reached about 40 to 60 mm^3, the mice were randomly divided into groups according to the tumor volume and administered.
(§2) 24 hours after the second administration of Doxil, blood was collected from the orbit of four groups of animals. The blood was placed in a collection tube without anticoagulant and left standing to naturally coagulate at room temperature for 30 to 60 minutes. When the blood coagulated, the blood was centrifuged at 1000 rpm, 4° C. for 10 minutes. The upper serum was transferred to a new collection tube and stored in a −80° C. freezer.

Granzyme B = assay: ELISA of Granzyme B in serum of CT26 tumor-bearing mice; type: in vivo, BALB/c mice; conditions: IN10018 25 mg/kg PO QD × 8, Doxil 3 mg/kg i.v. QW × 2; blood 24 hours after the second administration of Doxil; n=5
Experimental: as §1, §2

[2] = test system: FAK and phosphorylated FAKY397; assay: FAK knockdown efficiency by western blot; type: cell-based; conditions: 50 nM FAKsiRNA, SK-OV-3 cells, western blot 72 hours after transfection
Experimental: SK-OV-3 cells were used as the research object, and Lipofectamine 3000 was used to transfect the cells with 50 nM FAKsiRNA. After the assay, proteins were collected to detect the expression of FAK and phosphorylated FAKY397.
Lipofectamine 3000 was used as a transfection reagent. Downstream combination and ICD biomarker assays can be performed 24 hours after the transfection. 72 hours after the transfection, SK-OV-3 cell proteins were collected, and western blot was performed to detect the amount of phosphorylated FAKY397, FAK and alpha tubulin.

Compound | IC50 [1] [µM] | cell-killing effect observed under a microscope (CT26 cells) | IFN-γ protein concentration in serum (IFN-γ) [pg/mL] | Granzyme B protein concentration in serum (Granzyme B) [pg/mL] | knockdown effect on phosphorylated FAKY397 and total FAK proteins [2]
COc1cccc2c1C(=O)c1c(O)c3c(c(O)c1C2=O)C[C@@](O)(C(=O)CO)C[C@@H]3O[C@H]1C[C@H](N)[C@H](O)[C@H](C)O1 [Adriamycin, doxorubicin, reference compound] | 0.3 | had cell-killing effect | – | – | –
COc1cc(C(=O)NC2CCN(C)CC2)c(F)cc1Nc1ncc(C(F)(F)F)c(Oc2cccc3c2C(=O)N(C)C3)n1 [IN10018] | 10 | in good condition | 367.24 ± 7.34 | 50.48 ± 53.08 | –
FAKsiRNA: small interfering RNA for FAK knockdown, GenePharma; GGGCAUCAUUCAGAAGAUATT / UAUCUUCUGAAUGAUGCCCTT (chemistry not given here) | – | – | – | – | significant knockdown effect
